According to US10202361B2, “Pyridazinones as herbicides” (E I DU PONT DE NEMOURS AND COMPANY, priority 2014, dated 2019):
Read-outs that look alike come from different tables or passages of the source.

How the values were obtained:
Format in all cases: in vivo
[1] = test system: barnyardgrass (Echinochloa crus-galli); assay: Test A pre-/postemergence greenhouse herbicide test; conditions: Echinochloa crus-galli, 240 h, 0 to 100 scale (0 no effect, 100 complete control), approx. 10 d, read-out: Plant response rating, Barnyardgrass; for pest or weed control at 125 g/ha: 125 g ai/ha; for pest or weed control at 500 g/ha: 500 g ai/ha
Procedure, shortened: (§1)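 Seeds sown in loam–sand blend received a directed preemergence soil spray; postemergence spray was applied at the same time to plants 2–10 cm tall at one- to two-leaf stage. Compounds were in non-phytotoxic solvent with surfactant. Visual injury versus untreated controls after ~10 d in greenhouse, 0–100 scale (100 = complete control).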

[2] = test system: corn (Zea mays); assay: as above; conditions: Zea mays, 240 h, 0 to 100 scale (0 no effect, 100 complete control), approx. 10 d; for Corn plant response rating (crop injury, 0 = no effect, 100 = complete kill) at 125 g/ha: 125 g ai/ha; for Corn plant response rating (crop injury, 0 = no effect, 100 = complete kill) at 500 g/ha: 500 g ai/ha
Procedure, shortened: as §1

[3] = test system: crabgrass, Large (large crabgrass, Digitaria sanguinalis); assay: as above; conditions: Digitaria sanguinalis, 240 h, 0 to 100 scale (0 no effect, 100 complete control), approx. 10 d, read-out: Plant response rating, Crabgrass, Large; for pest or weed control at 125 g/ha: 125 g ai/ha; for pest or weed control at 500 g/ha: 500 g ai/ha
Procedure, shortened: as §1

[4] = test system: foxtail, giant (giant foxtail, Setaria faberii); assay: as above; conditions: Setaria faberi, 240 h, 0 to 100 scale (0 no effect, 100 complete control), approx. 10 d, read-out: Plant response rating, Foxtail, Giant; for pest or weed control at 125 g/ha: 125 g ai/ha; for pest or weed control at 500 g/ha: 500 g ai/ha
Procedure, shortened: as §1

[5] = test system: morningglory (Ipomoea spp.); assay: as above; conditions: Ipomoea, 240 h, 0 to 100 scale (0 no effect, 100 complete control), approx. 10 d, read-out: Plant response rating, Morningglory; for pest or weed control at 125 g/ha: 125 g ai/ha; for pest or weed control at 500 g/ha: 500 g ai/ha
Procedure, shortened: as §1

[6] = test system: pigweed (Amaranthus retroflexus); assay: as above; conditions: Amaranthus retroflexus, 240 h, 0 to 100 scale (0 no effect, 100 complete control), approx. 10 d, read-out: Plant response rating, Pigweed; for pest or weed control at 125 g/ha: 125 g ai/ha; for pest or weed control at 500 g/ha: 500 g ai/ha
Procedure, shortened: as §1

[7] = test system: velvetleaf (Abutilon theophrasti); assay: as above; conditions: Abutilon theophrasti, 240 h, 0 to 100 scale (0 no effect, 100 complete control), approx. 10 d, read-out: Plant response rating, Velvetleaf; for pest or weed control at 125 g/ha: 125 g ai/ha; for pest or weed control at 500 g/ha: 500 g ai/ha
Procedure, shortened: as §1

[8] = test system: wheat (Triticum aestivum); assay: as above; conditions: Triticum aestivum, 240 h, 0 to 100 scale (0 no effect, 100 complete control), approx. 10 d, read-out: Plant response rating, Wheat; for plant injury at 125 g/ha: 125 g ai/ha; for plant injury at 500 g/ha: 500 g ai/ha
Procedure, shortened: as §1

[9] = test system: rice (Oryza sativa); assay: Test B flooded paddy test; conditions: Oryza sativa, 312 h, Flood, scale of 0 to 100, 0 is no effect, 100 is complete control, 13 to 15 d, read-out: Plant response rating, Rice
Procedure, shortened: (§2)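 Plants were raised to the 2-leaf stage, then pots were flooded to 3 cm above the soil and the test compound was applied directly into the paddy water, with that depth held throughout. After 13 to 15 d in a greenhouse, injury was rated visually against untreated controls on a 0–100 scale (0 = no effect, 100 = complete control).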

[10] = test system: sedge, umbrella (small-flower umbrella sedge, Cyperus difformis); assay: Test B flooded paddy test; conditions: Cyperus difformis, 312 h, Flood, scale of 0 to 100, 0 is no effect, 100 is complete control, 13 to 15 d, read-out: Plant response rating, Sedge, Umbrella
Procedure, shortened: as §2

SMILES	pest or weed control at 125 g/ha ([1]; post-emergence, Postemergence)	pest or weed control at 500 g/ha ([1]; post-emergence, Postemergence)	pest or weed control at 125 g/ha ([1]; pre-emergence, Preemergence)	pest or weed control at 500 g/ha ([1]; pre-emergence, Preemergence)	Corn plant response rating (crop injury, 0 = no effect, 100 = complete kill) at 125 g/ha ([2]; post-emergence, Postemergence)	Corn plant response rating (crop injury, 0 = no effect, 100 = complete kill) at 500 g/ha ([2]; post-emergence, Postemergence)	Corn plant response rating (crop injury, 0 = no effect, 100 = complete kill) at 125 g/ha ([2]; pre-emergence, Preemergence)	Corn plant response rating (crop injury, 0 = no effect, 100 = complete kill) at 500 g/ha ([2]; pre-emergence, Preemergence)	pest or weed control at 125 g/ha ([3]; post-emergence, Postemergence)	pest or weed control at 500 g/ha ([3]; post-emergence, Postemergence)	pest or weed control at 125 g/ha ([3]; pre-emergence, Preemergence)	pest or weed control at 500 g/ha ([3]; pre-emergence, Preemergence)	pest or weed control at 125 g/ha ([4]; post-emergence, Postemergence)	pest or weed control at 500 g/ha ([4]; post-emergence, Postemergence)	pest or weed control at 125 g/ha ([4]; pre-emergence, Preemergence)	pest or weed control at 500 g/ha ([4]; pre-emergence, Preemergence)	pest or weed control at 125 g/ha ([5]; post-emergence, Postemergence)	pest or weed control at 500 g/ha ([5]; post-emergence, Postemergence)	pest or weed control at 125 g/ha ([5]; pre-emergence, Preemergence)	pest or weed control at 500 g/ha ([5]; pre-emergence, Preemergence)	further results
Cc1cc(=O)n(-c2ccc(F)cc2)nc1Cn1ccc(C(F)(F)F)n1 [Compound 3, 2-(4-fluorophenyl)-5-methyl-6-[[3-(trifluoromethyl)-1H-pyrazol-1-yl]methyl]-3(2H)-pyridazinone]	0%	10%	0%	20%	0%	20%	0%	0%	10%	30%	30%	90%	10%	30%	0%	40%	60%	70%	0%	0%	pest or weed control at 125 g/ha ([6]; post-emergence, Postemergence): 60%; pest or weed control at 500 g/ha ([6]; post-emergence, Postemergence): 70%; pest or weed control at 125 g/ha ([6]; pre-emergence, Preemergence): 20%; pest or weed control at 500 g/ha ([6]; pre-emergence, Preemergence): 80%; pest or weed control at 125 g/ha ([7]; post-emergence, Postemergence): 30%; pest or weed control at 500 g/ha ([7]; post-emergence, Postemergence): 80%; pest or weed control at 125 g/ha ([7]; pre-emergence, Preemergence): 0%; pest or weed control at 500 g/ha ([7]; pre-emergence, Preemergence): 20%; plant injury at 125 g/ha ([8]; post-emergence, Postemergence): 0%; plant injury at 500 g/ha ([8]; post-emergence, Postemergence): 0%; plant injury at 125 g/ha ([8]; pre-emergence, Preemergence): 0%; plant injury at 500 g/ha ([8]; pre-emergence, Preemergence): 0%; plant injury at 250 g/ha ([9]; 250 g ai/ha): 0%; pest or weed control at 250 g/ha ([10]; 250 g ai/ha): 0%
Cc1cc(=O)n(-c2ccc(C(F)(F)F)cc2)nc1Oc1ccnc(C(F)(F)F)c1 [Compound 5, 5-methyl-2-[4-(trifluoromethyl)phenyl]-6-[[2-(trifluoromethyl)-4-pyridinyl]oxy]-3(2H)-pyridazinone]	20%	70%	40%	90%	20%	30%	0%	10%	50%	80%	100%	100%	60%	90%	90%	100%	60%	100%	60%	80%	pest or weed control at 125 g/ha ([6]; post-emergence, Postemergence): 100%; pest or weed control at 500 g/ha ([6]; post-emergence, Postemergence): 100%; pest or weed control at 125 g/ha ([6]; pre-emergence, Preemergence): 100%; pest or weed control at 500 g/ha ([6]; pre-emergence, Preemergence): 100%; pest or weed control at 125 g/ha ([7]; post-emergence, Postemergence): 70%; pest or weed control at 500 g/ha ([7]; post-emergence, Postemergence): 100%; pest or weed control at 125 g/ha ([7]; pre-emergence, Preemergence): 20%; pest or weed control at 500 g/ha ([7]; pre-emergence, Preemergence): 100%; plant injury at 125 g/ha ([8]; post-emergence, Postemergence): 30%; plant injury at 500 g/ha ([8]; post-emergence, Postemergence): 40%; plant injury at 125 g/ha ([8]; pre-emergence, Preemergence): 0%; plant injury at 500 g/ha ([8]; pre-emergence, Preemergence): 10%; plant injury at 125 g/ha ([9]; 125 g ai/ha): 55%; pest or weed control at 125 g/ha ([10]; 125 g ai/ha): 80%
